Assay [1] addresses T1, EGFR L858R/T790M/C797S (BaF3-LTC cells) (Homo sapiens, UniProt P00533, C797S/L858R/T790M).
T1 construct: expressed in transfected cells; host or cells: BaF3
The experiment in a line: EGFR degradation HTRF assay, BaF3-LTC cells. To be noted: BaF3-LTC cells; for DC50: EGFR degradation, IC50 (DC50) from curve fit, read-out: DC50(nM) BaF3-LTC; for Dmax: maximum percentage of inhibition (degradation), read-out: Dmax (%) BaF3-LTC. It is filed as cell-based. The essentials:
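EGFR remaining after a 16 h, 37 °C exposure (8 doses, 5-fold steps from 10 uM final, 0.2% DMSO) was quantified by HTRF antibodies in cell lysate. Percent inhibition relative to DMSO control was fitted by four-parameter logistic to give DC50; Dmax denotes maximal degradation.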

The test system of assay [2] is EGFR Del19/T790M/C797S (H1975-clone #28). Nature of the assay: EGFR degradation HTRF assay, H1975-clone #28 DTC cells. The format is cell-based. To be noted: H1975 # 28 DTC cells; for DC50: EGFR degradation, IC50 (DC50) from curve fit, read-out: DC50(nM) H1975 # 28 DTC; for Dmax (%) H1975 # 28 DTC: maximum percentage of inhibition (degradation). The method, boiled down:
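Engineered H1975 lines (lentiviral mutant EGFR, endogenous EGFR knocked out, single-clone verified); 16h compound, 37° C., 5% CO2, 0.2% DMSO; 8-point 5-fold series from 10 uM final. HTRF lysate read; % degradation vs DMSO, four-parameter fit → DC50, Dmax.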

T1 sequence (P00533 25-1210 T790M/C797S/L858R): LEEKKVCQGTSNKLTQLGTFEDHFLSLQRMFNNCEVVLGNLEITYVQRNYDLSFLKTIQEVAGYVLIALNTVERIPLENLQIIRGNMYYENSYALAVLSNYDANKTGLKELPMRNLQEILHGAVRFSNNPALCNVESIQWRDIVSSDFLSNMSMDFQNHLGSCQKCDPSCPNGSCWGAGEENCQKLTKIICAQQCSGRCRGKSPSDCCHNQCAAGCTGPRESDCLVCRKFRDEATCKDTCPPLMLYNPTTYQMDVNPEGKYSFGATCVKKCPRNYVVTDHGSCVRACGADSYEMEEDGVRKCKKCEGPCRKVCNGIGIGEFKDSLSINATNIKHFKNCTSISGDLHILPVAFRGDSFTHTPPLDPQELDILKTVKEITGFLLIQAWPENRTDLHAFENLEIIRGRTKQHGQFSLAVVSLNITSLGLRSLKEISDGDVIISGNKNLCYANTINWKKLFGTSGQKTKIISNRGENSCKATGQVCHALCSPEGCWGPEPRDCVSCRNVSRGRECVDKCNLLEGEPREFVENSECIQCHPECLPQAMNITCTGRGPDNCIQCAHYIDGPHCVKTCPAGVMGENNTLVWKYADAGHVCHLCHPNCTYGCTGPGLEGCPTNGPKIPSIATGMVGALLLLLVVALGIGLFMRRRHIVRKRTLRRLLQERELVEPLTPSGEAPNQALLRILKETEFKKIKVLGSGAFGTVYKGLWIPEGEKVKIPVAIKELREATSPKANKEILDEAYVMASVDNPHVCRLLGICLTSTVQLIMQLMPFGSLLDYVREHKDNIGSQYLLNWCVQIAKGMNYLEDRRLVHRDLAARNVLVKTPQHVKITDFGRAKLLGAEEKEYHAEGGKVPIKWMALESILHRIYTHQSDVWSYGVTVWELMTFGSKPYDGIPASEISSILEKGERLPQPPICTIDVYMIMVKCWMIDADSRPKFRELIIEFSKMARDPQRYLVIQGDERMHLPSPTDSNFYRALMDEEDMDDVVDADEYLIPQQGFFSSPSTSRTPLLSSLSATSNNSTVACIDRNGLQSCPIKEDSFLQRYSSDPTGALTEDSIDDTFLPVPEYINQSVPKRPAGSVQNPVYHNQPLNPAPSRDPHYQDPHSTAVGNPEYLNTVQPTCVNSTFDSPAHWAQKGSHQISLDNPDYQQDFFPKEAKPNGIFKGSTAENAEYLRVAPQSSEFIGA

`CCOc1cc(N2CCC(N3CCN(CCc4cc(F)c(F)c5c4n(CC)c(=O)n5C4CCC(=O)NC4=O)CC3)CC2)c(CC)cc1Nc1ncc(Br)c(Nc2ccc3c(=O)n(CC)ncc3c2P(C)(C)=O)n1` (centres unmarked) [Example 743, 3-(4-(2-(4-(1-(4-((5-bromo-4-((5-(dimethylphosphoryl)-2-ethyl-1-oxo-1,2-dihydrophthalazin-6-yl)amino)pyrimidin-2-yl)amino)-5-ethoxy-2-ethylphenyl)piperidin-4-yl)piperazin-1-yl)ethyl)-3-ethyl-6,7-difluoro-2-oxo-2,3-dihydro-1H-benzo[d]imidazol-1-yl)piperidine-2,6-dione]: in assay [1], the DC50 was 55.9 nM and the Dmax stood at 79.7%. In addition, in assay [2], the DC50 worked out at 2.42 nM and the “Dmax (%) H1975 # 28 DTC” value is given as 75.96%.

As for `CCOc1cc(N2CCC(N3CCN(CCC4CCN(c5cc(F)c6c(c5)n(CC)c(=O)n6C5CCC(=O)NC5=O)CC4)CC3)CC2)c(CC)cc1Nc1ncc(Br)c(Nc2ccc3c(=O)n(CC)ncc3c2P(C)(C)=O)n1` (centres unmarked) [Example 640, 3-(5-(4-(2-(4-(1-(4-((5-bromo-4-((5-(dimethylphosphoryl)-2-ethyl-1-oxo-1,2-dihydrophthalazin-6-yl)amino)pyrimidin-2-yl)amino)-5-ethoxy-2-ethylphenyl)piperidin-4-yl)piperazin-1-yl)ethyl)piperidin-1-yl)-3-ethyl-7-fluoro-2-oxo-2,3-dihydro-1H-benzo[d]imidazol-1-yl)piperidine-2,6-dione], in assay [1], the 50% degradation concentration (DC50) was determined as 17.9 nM and the Dmax came to 87.2%. In assay [2], the DC50 was found to be 3.09 nM and the “Dmax (%) H1975 # 28 DTC” value is listed as 85.38%.

For `CCc1cc(Nc2ncc(Br)c(Nc3ccc4nc(C)ccc4c3P(C)(C)=O)n2)c(OC)cc1N1CCC(N2CCN(CCC3CCN(c4cc(F)c(C5CCC(=O)NC5=O)c(F)c4)CC3)C(=O)C2)CC1` (centres unmarked) [Example 695, 3-(4-(4-(2-(4-(1-(4-((5-bromo-4-((5-(dimethylphosphoryl)-2-methylquinolin-6-yl)amino)pyrimidin-2-yl)amino)-2-ethyl-5-methoxyphenyl)piperidin-4-yl)-2-oxopiperazin-1-yl)ethyl)piperidin-1-yl)-2,6-difluorophenyl)piperidine-2,6-dione], in assay [1], the 50% degradation concentration (DC50) turned out to be 12.7 nM and the Dmax was determined as 93.5%. Moreover, in assay [2], the DC50 was found to be 3.06 nM and the “Dmax (%) H1975 # 28 DTC” value was determined as 68.81%.

Turning to `CCOc1cc(N2CCC(N3CCN(CCc4cc(F)c([C@H]5CCC(=O)NC5=O)c(F)c4)[C@H](CO)C3)CC2)c(CC)cc1Nc1ncc(Br)c(Nc2ccc3nc(CC)ccc3c2P(C)(C)=O)n1` [Example 657, (R)-3-(4-(2-((S)-4-(1-(4-((5-bromo-4-((5-(dimethylphosphoryl)-2-ethylquinolin-6-yl)amino)pyrimidin-2-yl)amino)-5-ethoxy-2-ethylphenyl)piperidin-4-yl)-2-(hydroxymethyl)piperazin-1-yl)ethyl)-2,6-difluorophenyl)piperidine-2,6-dione], in assay [1], the DC50 turned out to be 3.3 nM and the greatest degradation seen (Dmax) worked out at 87.7%. In assay [2], the DC50 turned out to be 0.981 nM and the “Dmax (%) H1975 # 28 DTC” value is 86.35%.

As to `CCOc1cc(N2CCC(N3CCN(C(=O)COc4cccc5c4n(C)c(=O)n5C4CCC(=O)NC4=O)CC3)CC2)c(CC)cc1Nc1ncc(Br)c(Nc2ccc3nc(CC)ccc3c2P(C)(C)=O)n1` (centres unmarked) [Example 637, 3-(4-(2-(4-(1-(4-((5-bromo-4-((5-(dimethylphosphoryl)-2-ethylquinolin-6-yl)amino)pyrimidin-2-yl)amino)-5-ethoxy-2-ethylphenyl)piperidin-4-yl)piperazin-1-yl)-2-oxoethoxy)-3-methyl-2-oxo-2,3-dihydro-1H-benzo[d]imidazol-1-yl)piperidine-2,6-dione], in assay [1], the DC50 is 5.39 nM and the Dmax stood at 92.9%. In addition, in assay [2], the 50% degradation concentration (DC50) amounted to 0.354 nM and the “Dmax (%) H1975 # 28 DTC” value is listed as 69.46%.

`COc1cc(N2CCC(N3CCN(C(=O)[C@H]4CCN(c5cc(F)c(C6CCC(=O)NC6=O)c(F)c5)C4)CC3)CC2)c(C)cc1Nc1ncc(Br)c(Nc2ccc3c(=O)n(C)ncc3c2P(C)(C)=O)n1` (stereo partly drawn) [Example 513, 3-(4-((S)-3-(4-(1-(4-((5-bromo-4-((5-(dimethylphosphoryl)-2-methyl-1-oxo-1,2-dihydrophthalazin-6-yl)amino)pyrimidin-2-yl)amino)-5-methoxy-2-methylphenyl)piperidin-4-yl)piperazine-1-carbonyl)pyrrolidin-1-yl)-2,6-difluorophenyl)piperidine-2,6-dione]: in assay [1], the DC50 is 10.2 nM and the Dmax was determined as 85.2%. In assay [2], the DC50 amounted to 1.37 nM and the “Dmax (%) H1975 # 28 DTC” value worked out at 78.24%.

Turning to `CCOc1cc(N2CCC(N3CCN(CCc4cc(F)c(F)c5c4n(CC)c(=O)n5C4CCC(=O)NC4=O)CC3)CC2)c(CC)cc1Nc1ncc(Br)c(Nc2ccc3nc(CC)ccc3c2P(C)(C)=O)n1` (centres unmarked) [Example 742, 3-(4-(2-(4-(1-(4-((5-bromo-4-((5-(dimethylphosphoryl)-2-ethylquinolin-6-yl)amino)pyrimidin-2-yl)amino)-5-ethoxy-2-ethylphenyl)piperidin-4-yl)piperazin-1-yl)ethyl)-3-ethyl-6,7-difluoro-2-oxo-2,3-dihydro-1H-benzo[d]imidazol-1-yl)piperidine-2,6-dione], the DC50 in assay [1] amounted to 36.5 nM. Also, in assay [2], the DC50 amounted to 3.52 nM and the “Dmax (%) H1975 # 28 DTC” value came to 68.91%.

Regarding `CCc1ccc2c(P(C)(C)=O)c(Nc3nc(Nc4cc(CC)c(N5CCC(N6CCN(CCc7cc(F)c([C@H]8CCC(=O)NC8=O)c(F)c7)CC6)CC5)cc4OC4CC4)ncc3Br)ccc2n1` [Example 547, (R)-3-(4-(2-(4-(1-(4-((5-bromo-4-((5-(dimethylphosphoryl)-2-ethylquinolin-6-yl)amino)pyrimidin-2-yl)amino)-5-cyclopropoxy-2-ethylphenyl)piperidin-4-yl)piperazin-1-yl)ethyl)-2,6-difluorophenyl)piperidine-2,6-dione], in assay [1], the DC50 turned out to be 4.45 nM and the Dmax was 89.3%. Besides, in assay [2], the DC50 was 0.647 nM and the “Dmax (%) H1975 # 28 DTC” value was found to be 87.96%.

`CCOc1cc(N2CCC(N3CCN(C(=O)CN4CCN(c5cc(F)c([C@H]6CCC(=O)NC6=O)c(F)c5)CC4)CC3)CC2)c(CC)cc1Nc1ncc(Br)c(Nc2ccc3c(=O)n(CC)ncc3c2P(C)(C)=O)n1` [Example 639, (R)-3-(4-(4-(2-(4-(1-(4-((5-bromo-4-((5-(dimethylphosphoryl)-2-ethyl-1-oxo-1,2-dihydrophthalazin-6-yl)amino)pyrimidin-2-yl)amino)-5-ethoxy-2-ethylphenyl)piperidin-4-yl)piperazin-1-yl)-2-oxoethyl)piperazin-1-yl)-2,6-difluorophenyl)piperidine-2,6-dione]: in assay [1], the DC50 turned out to be 4.06 nM and the Dmax amounted to 94.3%. Moreover, in assay [2], the DC50 amounted to 0.71 nM and the “Dmax (%) H1975 # 28 DTC” value is listed as 86.93%.

Consider `CCOc1cc(N2CCC(N3CCN(CCCc4cccc5c4oc(=O)n5C4CCC(=O)NC4=O)CC3)CC2)c(CC)cc1Nc1ncc(Br)c(Nc2ccc3nc(CC)ccc3c2P(C)(C)=O)n1` (centres unmarked) [Example 630, 3-(7-(3-(4-(1-(4-((5-bromo-4-((5-(dimethylphosphoryl)-2-ethylquinolin-6-yl)amino)pyrimidin-2-yl)amino)-5-ethoxy-2-ethylphenyl)piperidin-4-yl)piperazin-1-yl)propyl)-2-oxobenzo[d]oxazol-3(2H)-yl)piperidine-2,6-dione], for which, in assay [1], the 50% degradation concentration (DC50) is 8.65 nM and the Dmax was 91%. In assay [2], the DC50 stood at 1.14 nM and the “Dmax (%) H1975 # 28 DTC” value was 72.34%.

Turning to `CCc1cc(Nc2ncc(Br)c(Nc3ccc4c(C)nccc4c3P(C)(C)=O)n2)c(OC)cc1N1CCC(N2CCN(CCc3cc(F)c([C@H]4CCC(=O)NC4=O)c(F)c3)CC2)CC1` [Example 684, (R)-3-(4-(2-(4-(1-(4-((5-bromo-4-((5-(dimethylphosphoryl)-1-methylisoquinolin-6-yl)amino)pyrimidin-2-yl)amino)-2-ethyl-5-methoxyphenyl)piperidin-4-yl)piperazin-1-yl)ethyl)-2,6-difluorophenyl)piperidine-2,6-dione], in assay [1], the 50% degradation concentration (DC50) is 12.4 nM and the greatest degradation seen (Dmax) was found to be 91.4%. Further, in assay [2], the 50% degradation concentration (DC50) amounted to 1.06 nM and the “Dmax (%) H1975 # 28 DTC” value amounted to 88.35%.

For `CCc1cc(Nc2ncc(Br)c(Nc3ccc4nc(C)ccc4c3P(C)(C)=O)n2)c(OC)cc1N1CCC(N2CCN(C3CCN(c4cc(F)c(C5CCC(=O)NC5=O)c(F)c4)CC3)CC2)CC1` (centres unmarked) [Example 694, 3-(4-(4-(4-(1-(4-((5-bromo-4-((5-(dimethylphosphoryl)-2-methylquinolin-6-yl)amino)pyrimidin-2-yl)amino)-2-ethyl-5-methoxyphenyl)piperidin-4-yl)piperazin-1-yl)piperidin-1-yl)-2,6-difluorophenyl)piperidine-2,6-dione], in assay [1], the DC50 is 16.1 nM and the Dmax stood at 92.2%. In assay [2], the DC50 was 0.986 nM and the “Dmax (%) H1975 # 28 DTC” value stood at 68.67%.

The values above are taken from US20230265116A1, “DEGRADATION OF (EGFR) BY CONJUGATION OF EGFR INHIBITORS WITH E3 LIGASE LIGAND AND METHODS OF USE” (BEIGENE, LTD., priority 2020, published 2023).
